Marks after values point to notes of the source that are not given here.
Experiments:
[1] = tested on: OVA induced atopic dermatitis (AD) mouse model; test: OVA induced atopic dermatitis (AD) mouse model, skin inflammation status scoring; assay type: in vivo, BALB/c mice; details: AD model mice, topical patch for 3 consecutive days; total score 0-12; 6 mice per group
Procedure: 10 μg OVA was mixed with 2 mg of aluminum hydroxide in 200 μL of phosphate buffer (PBS) solution, intraperitoneally injected to sensitize mice, once every week (at day 0, 7 and 14), each mouse was injected 3 times, 200 μL each time. On day 14, mice were anesthetized using pentobarbital intraperitoneal injection. […] The OVA patch was prepared by wetting a 1.5×1.5 cm^2 sterile gauze in a solution of 1 mg/mL of OVA (dissolved in PBS) (approximately 100 μL of OVA solution), and was attached using a transparent dressing to the back skin after epilation and replaced daily for 3-7 days to develop dermatitis manifestation, and the status of the back skin of the mice was recorded photographically on day 4~5 after inducing mouse dermatitis (the dermatitis manifestation was most obvious), and the skin inflammation status was scored. […]
Skin inflammation status scores assess dermatitis severity clinically. The total score was 0 to 12, evaluated from four aspects, edema, erythema, scaling and erosion, respectively, an individual score was 0-3 (0, no; 1, mild; 2, moderate; 3, severe), and the final score was the sum of each individual term [SCHWARTZ C, et al. Spontaneous atopic dermatitis in mice with a defective skin barrier is independent of ILC2 and mediated by IL-1β.

[2] = tested on: CD25+FoxP3+ cells in spleen CD3+CD4+ lymphocytes and PD-1+ cells in CD3+CD4+CD25+FoxP3+ cells; test: Intraperitoneal injection in physiological model mice, spleen Treg and PD-1 by flow cytometry; assay type: in vivo, BALB/c mice
Source text: We intraperitoneally injected PEG-IL-2 modified with non-branched PEG of different molecular weight sizes in physiological model mice, and detected FoxP3+ regulatory T cells and the expression of PD-1 in spleen cells on day 4.

Row | Molecule | Dermatitis score (χ ± s) [1] | up-regulation of FoxP3+ regulatory T cells in spleen (in words) ([2]; detected on day 4) | expression of PD-1 by regulatory T cells (in words) ([2]; spleen, day 4)
1 | CCCC1O[C@@H]2C[C@H]3[C@@H]4CCC5=CC(=O)C=C[C@]5(C)[C@H]4[C@@H](O)C[C@]3(C)[C@]2(C(=O)CO)O1 (stereo partly drawn) [Budesonide alone, budesonide] | 2.333 ± 1.211*^ | – | –
2 | normal IL-2: recombinant human interleukin 2 not modified with PEG, SEQ ID NO: 1, 15 kD | – | did not up-regulate Tregs | can promote the expression of PD-1
